In US20250332173A1, “COMPOUNDS AND METHODS FOR MODULATING NUCLEIC ACID SPLICING” (REMIX THERAPEUTICS INC., priority 2021, published 2025):

Legend:
[1] = tested on: MYB; test: HiBiT protein abundance assay, MYB HiBiT K562 cell line; type: cell-based, human; details: HiBiT K562 cell line, 24 hours, top dose 10 μM; read-out: Effect on protein abundance, MYB (IC50 category)
Summary of the method: (§1)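 Endogenous targets in K562 knock-in lines carried a HiBiT tag and were treated for 24 h at 37 °C with 10-point 3-fold dilutions (top 10 μM final, DMSO ≤0.25%). Abundance was read as lytic Nano-Glo HiBiT luminescence. IC50 came from a four-parameter logistic fit of normalized response.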

[2] = tested on: HTT; test: HiBiT protein abundance assay, HTT HiBiT K562 cell line; type: cell-based, human; details: HiBiT K562 cell line, 24 hours, top dose 10 μM; read-out: Effect on protein abundance, HTT (IC50 category)
Summary of the method: as §1

[3] = tested on: K562 (human chronic myelogenous leukemia) cells; test: Cell Titer Glo 2.0 cell viability assay; type: cell-based; details: Homo sapiens, K562, 72 h, K562 cells, 72 hours, Cell Titer Glo 2.0; read-out: K562 GI50
[4] = tested on: Target C; test: HiBiT protein abundance assay, Target C (Promega Nano-Glo HiBiT Lytic Detection System, knock-in K562 cell line); type: cell-based, human; details: Homo sapiens, K562, 24 h, HiBiT K562 cell line, 24 hours, top dose 10 μM; read-out: Effect on protein abundance, Target C (IC50 category)
Summary of the method: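 HiBiT knock-in K562 cells (10,000/well) were treated for 24 h at 37 °C with a 10-point 3-fold dilution series, top final concentration 10 μM, DMSO ≤0.25%. Lytic HiBiT luminescence was read, normalized to unmodified K562 and DMSO-treated controls, and IC50 was interpolated from a four-parameter logistic fit.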

Row | Compound | IC50 [1] [nM] | IC50 [2] [nM] | GI50 [3] [nM] | IC50 [4] [nM]
1 | Cc1cn2nc(-c3ccc4c(=O)n(C5CCNCC5)cc(C)c4c3)cc(C)c2n1 [Compound 381, 6-{2,8-dimethylimidazo[1,2-b]pyridazin-6-yl}-4-methyl-2-(piperidin-4-yl)isoquinolin-1-one] | < 100 | < 100 | 100 to 1000 | 100 to 1000
2 | Cc1cn2cc(-c3cc(F)c4c(=O)n(C5CCNCC5)ccc4c3)cc(C#N)c2n1 [Compound 383, 6-[8-fluoro-1-oxo-2-(piperidin-4-yl)isoquinolin-6-yl]-2-methylimidazo[1,2-a]pyridine-8-carbonitrile] | < 100 | 100 to 1000 | 100 to 1000 | 100 to 1000
3 | Cc1cn2nc(-c3ccc4c(=O)n(C5CCNC6(CC6)C5)ccc4c3)cc(C)c2n1 (stereo not shown) [Compound 384] | < 100 | < 100 | 100 to 1000 | < 100
4 | Cc1cn2nc(-c3cc(C#N)c4c(=O)n(C5CCNC6(CC6)C5)ccc4c3)cc(C)c2n1 (stereo not shown) [Compound 387] | < 100 | < 100 | < 100 | < 100
5 | Cc1cn2nc(-c3cc(Cl)c4c(=O)n(C5CCNCC5)ccc4c3)cc(C)c2n1 [Compound 390, 8-chloro-6-{2,8-dimethylimidazo[1,2-b]pyridazin-6-yl}-2-(piperidin-4-yl)isoquinolin-1-one; trifluoroacetaldehyde] | < 100 | < 100 | < 100 | < 100
6 | Cc1cn2nc(-c3cc(O)c4c(=O)n(C5CCNCC5)ccc4c3)cc(C)c2n1 [Compound 391, 6-(2,8-dimethylimidazo[1,2-b]pyridazin-6-yl)-8-hydroxy-2-(piperidin-4-yl)isoquinolin-1(2H)-one] | < 100 | < 100 | < 100 | < 100
7 | CC(=O)c1cc(-c2cc(F)c3c(=O)n(C4CCNCC4)ccc3c2)cn2cc(C)nc12 [Compound 393, 6-{8-acetyl-2-methylimidazo[1,2-a]pyridin-6-yl}-8-fluoro-2-(piperidin-4-yl)isoquinolin-1-one 2,2,2-trifluoroacetate] | < 100 | 100 to 1000 | 100 to 1000 | 100 to 1000
8 | Cn1cc2cc(-c3cc(F)c4c(=O)n(C5CCNCC5)ccc4c3)cc(C#N)c2n1 [Compound 394, 5-(8-fluoro-1-oxo-2-(piperidin-4-yl)-1,2-dihydroisoquinolin-6-yl)-2-methyl-2H-indazole-7-carbonitrile] | < 100 | < 100 | < 100 | < 100
9 | COc1cc(-c2cc(C)c3nc(C)cn3n2)cc2ccn(C3CCNCC3)c(=O)c12 [Compound 399, 6-{2,8-dimethylimidazo[1,2-b]pyridazin-6-yl}-8-methoxy-2-(piperidin-4-yl)isoquinolin-1-one] | 100 to 1000 | 100 to 1000 | 100 to 1000 | 100 to 1000
10 | Cc1cn2nc(-c3cc(F)c4c(=O)n(C5CCN(C)CC5)ccc4c3)cc(C)c2n1 [Compound 400, 6-(2,8-dimethylimidazo[1,2-b]pyridazin-6-yl)-8-fluoro-2-(1-methylpiperidin-4-yl)isoquinolin-1(2H)-one] | < 100 | < 100 | 100 to 1000 | < 100
11 | CCN1CCC(n2ccc3cc(-c4cc(C)c5nc(C)cn5n4)ccc3c2=O)CC1 [Compound 402, 6-{2,8-dimethylimidazo[1,2-b]pyridazin-6-yl}-2-(1-ethylpiperidin-4-yl)isoquinolin-1-one] | < 100 | < 100 | 100 to 1000 | 100 to 1000
12 | Cc1cn2cc(-c3ccc4c(=O)n([C@H]5CCCNC5)ccc4c3)cc(F)c2n1 [Compound 404, 6-{8-fluoro-2-methylimidazo[1,2-a]pyridin-6-yl}-2-[(3S)-piperidin-3-yl]isoquinolin-1-one] | 100 to 1000 | 1000 to 10000 | 1000 to 10000 | 1000 to 10000
13 | Cc1cn2cc(-c3cc(S(C)(=O)=O)c4c(=O)n(C5CCNCC5)ccc4c3)cc(F)c2n1 [Compound 409, 6-(8-fluoro-2-methylimidazo[1,2-a]pyridin-6-yl)-8-(methylsulfonyl)-2-(piperidin-4-yl)isoquinolin-1(2H)-one] | > 10000 | > 10000 | > 10000 | > 10000
14 | Cn1cc2cc(-c3cc(F)c4c(=O)n(C5CCNC6(CC6)C5)ccc4c3)cc(F)c2n1 (stereo not shown) [Compound 412] | < 100 | < 100 | < 100 | < 100
15 | Cc1cn2cc(-c3cc(F)c4c(=O)n(C5CCNC6(CC6)C5)ccc4c3)cc(Cl)c2n1 (stereo not shown) [Compound 413, 2-{4-azaspiro[2.5]octan-7-yl}-6-{8-chloro-2-methylimidazo[1,2-a]pyridin-6-yl}-8-fluoroisoquinolin-1-one] | < 100 | < 100 | < 100 | < 100
16 | Cn1cc2cc(-c3cc(F)c4c(=O)n(C5CCNC6(CC6)C5)ccc4c3)c(O)cc2n1 (stereo not shown) [Compound 414, 2-{4-azaspiro[2.5]octan-7-yl}-8-fluoro-6-(6-hydroxy-2-methylindazol-5-yl)isoquinolin-1-one] | 1000 to 10000 | 1000 to 10000 | > 10000 | > 10000
17 | Cc1cc(-c2cc(F)c3c(=O)n(C4CCNC5(CC5)C4)ccc3c2)cc2cn(C)nc12 (stereo not shown) [Compound 415, 2-{4-azaspiro[2.5]octan-7-yl}-6-(2,7-dimethylindazol-5-yl)-8-fluoroisoquinolin-1-one] | < 100 | < 100 | 100 to 1000 | < 100
18 | Cc1cn2cc(-c3cc(F)c4c(=O)n(C5CCNC6(CC6)C5)ccc4c3)cc(C)c2n1 (stereo not shown) [Compound 416, 2-{4-azaspiro[2.5]octan-7-yl}-6-{2,8-dimethylimidazo[1,2-a]pyridin-6-yl}-8-fluoroisoquinolin-1-one] | < 100 | < 100 | < 100 | < 100

Other lines, results leading:

Row | IC50 [1] [nM] | IC50 [2] [nM] | GI50 [3] [nM] | IC50 [4] [nM] | Compound
19 | < 100 | < 100 | < 100 | < 100 | Cc1nc2c(F)cc(-c3cc(F)c4c(=O)n(C5CCNC6(CC6)C5)ccc4c3)cc2o1 (stereo not shown) [Compound 417, 2-{4-azaspiro[2.5]octan-7-yl}-8-fluoro-6-(4-fluoro-2-methyl-1,3-benzoxazol-6-yl)isoquinolin-1-one]
20 | < 100 | < 100 | 100 to 1000 | < 100 | Cc1nc2c(C)cc(-c3cc(F)c4c(=O)n(C5CCNC6(CC6)C5)ccc4c3)cc2o1 (stereo not shown) [Compound 418, 2-{4-azaspiro[2.5]octan-7-yl}-6-(2,4-dimethyl-1,3-benzoxazol-6-yl)-8-fluoroisoquinolin-1-one]
21 | 1000 to 10000 | > 10000 | > 10000 | > 10000 | Cc1c(O)c(-c2cc(F)c3c(=O)n(C4CCNC5(CC5)C4)ccc3c2)cc2cn(C)nc12 (stereo not shown) [Compound 419, 2-{4-azaspiro[2.5]octan-7-yl}-8-fluoro-6-(6-hydroxy-2,7-dimethylindazol-5-yl)isoquinolin-1-one]
22 | 100 to 1000 | 1000 to 10000 | 1000 to 10000 | 1000 to 10000 | Cn1cc2cc(-c3cc(F)c4c(=O)n(C5CCNC6(CC6)C5)ccc4c3)c(O)c(F)c2n1 (stereo not shown) [Compound 420, 2-{4-azaspiro[2.5]octan-7-yl}-8-fluoro-6-(7-fluoro-6-hydroxy-2-methylindazol-5-yl)isoquinolin-1-one]
23 | > 10000 | > 10000 | > 10000 | > 10000 | Cc1cn2cc(-c3cc(F)c4c(=O)n(C5CCNC6(CC6)C5)ccc4c3)c(O)c(C)c2n1 (stereo not shown) [Compound 421, 2-{4-azaspiro[2.5]octan-7-yl}-8-fluoro-6-{7-hydroxy-2,8-dimethylimidazo[1,2-a]pyridin-6-yl}isoquinolin-1-one]
24 | < 100 | < 100 | 100 to 1000 | < 100 | Cc1cn2nc(-c3cc(C)c4c(=O)n(C5CCNC6(CC6)C5)ncc4c3)cc(C)c2n1 (stereo not shown) [Compound 423, 6-(2,8-dimethylimidazo[1,2-b]pyridazin-6-yl)-8-methyl-2-(4-azaspiro[2.5]octan-7-yl)phthalazin-1(2H)-one]
25 | 100 to 1000 | 100 to 1000 | 1000 to 10000 | 1000 to 10000 | Cc1cn2cc(-c3cc(F)c4c(=O)n(C5CCNC6(CC6)C5)ccc4c3)ncc2n1 (stereo not shown) [Compound 428, 8-fluoro-6-(2-methylimidazo[1,2-a]pyrazin-6-yl)-2-(4-azaspiro[2.5]octan-7-yl)isoquinolin-1(2H)-one]
26 | 1000 to 10000 | > 10000 | 1000 to 10000 | 100 to 1000 | Cc1cc(-c2cc(F)c3c(=O)n(C4CCNC5(CC5)C4)ccc3c2)cc2c1nc(C)n2C (stereo not shown) [Compound 429]
27 | 1000 to 10000 | > 10000 | 1000 to 10000 | > 10000 | Cc1nc2c(F)cc(-c3cc(F)c4c(=O)n(C5CCNC6(CC6)C5)ccc4c3)cc2n1C (stereo not shown) [Compound 430, 8-fluoro-6-(4-fluoro-1,2-dimethyl-1H-benzo[d]imidazol-6-yl)-2-(4-azaspiro[2.5]octan-7-yl)isoquinolin-1(2H)-one]
28 | < 100 | < 100 | 100 to 1000 | < 100 | Cc1cc(-c2cc(F)c3c(=O)n(C4CCNC5(CC5)C4)ccc3c2)nc2cn(C)nc12 (stereo not shown) [Compound 431]
